In one assay the test system is S. aureus ATCC 29213. Description: MIC, broth macrodilution (CLSI), S. aureus ATCC 29213. It is filed as cell-based, Staphylococcus aureus. Here is the method: (§1) All compounds were tested against American Type Culture Collection (ATCC) reference strains as well as clinical isolates from the Canadian Intensive Care Unit (CAN-ICU) study (Zhanel, et al., 2008). […] Antibacterial activity against Gram-positive and Gram-negative microorganisms was performed via broth macrodilution tests using CLSI methodology (Clinical and Laboratory Standards Institute, 2006). The minimum inhibitory concentration (MIC) in μg/mL of the aminoglycoside-derived amphiphilic polycarbamates and polyethers were determined using established methods (Clinical and Laboratory Standards Institute, 2006) and are shown in Tables 1 and 2, respectively.

Assay [1] relates to methicillin-resistant Staphylococcus aureus (MRSA) ATCC 33592. In words: MIC, broth macrodilution (CLSI), MRSA ATCC 33592. In kind it is cell-based. Particulars: MRSA, methicillin-resistant S. aureus ATCC 33592. Here is the method:
as §1

Assay [2] deals with S. epidermidis ATCC 14990. In words: MIC, broth macrodilution (CLSI), S. epidermidis. In kind it is cell-based, Staphylococcus epidermidis. The conditions noted are these: footnote ATCC 1490. The method, then: as §1
Assay [3] concerns methicillin-resistant Staphylococcus epidermidis (MRSE) CAN-ICU 61589. Description: MIC, broth macrodilution (CLSI), MRSE. In kind it is cell-based. Particulars: methicillin-resistant S. epidermidis, footnote (ATCC 14990). The method, then: as §1
Assay [4] relates to Streptococcus pneumoniae ATCC 49619. Description: MIC, broth macrodilution (CLSI), S. pneumoniae ATCC 49619. It is filed as cell-based. The method, then: as §1
For a further assay, the system named is E. coli ATCC 25922. Description: MIC, broth macrodilution (CLSI), E. coli ATCC 25922. It is filed as cell-based. Here is the method:
as §1

Assay [5] deals with E. coli (Gentamicin-resistant) CAN-ICU 61714. Description: MIC, broth macrodilution (CLSI), gentamicin-resistant E. coli. In kind it is cell-based. The conditions noted are these: footnote ATCC 6174 (gentamicin resistant). The method, then:
as §1

Assay [6] has as its system E. coli (Amikacin MIC 32) CAN-ICU 63074. Description: MIC, broth macrodilution (CLSI), E. coli CAN-ICU 63074. It is filed as cell-based. The method, then:
as §1

The subject of assay [7] is Pseudomonas aeruginosa ATCC 27853. Description: MIC, broth macrodilution (CLSI), P. aeruginosa ATCC 27853. It is filed as cell-based. Here is the method: as §1
Assay [8] has as its system P. aeruginosa (Gent-R) CAN-ICU 62308. In words: MIC, broth macrodilution (CLSI), P. aeruginosa CAN-ICU 62308. In kind it is cell-based, Pseudomonas aeruginosa. Here is the method:
as §1

Assay [9] relates to Stenotrophomonas maltophilia (CAN-ICU 62585). In words: MIC, broth macrodilution (CLSI), S. maltophilia. In kind it is cell-based. The conditions noted are these: S. maltophilia, footnote CAN-ICU 62584. Here is the method: as §1
Assay [10] deals with Acinetobacter baumanni (CAN-ICU 63169). In words: MIC, broth macrodilution (CLSI), A. baumannii. It is filed as cell-based. The conditions noted are these: A. baumannii CAN-ICU 63169. The method, then: as §1
For the next assay, the system named is S. pneumoniae ATCC 13883. In words: MIC, broth macrodilution (CLSI), S. pneumoniae ATCC 13883. In kind it is cell-based. The method, then:
as §1

The results in this text go back to US8999942B2, “Polyol modified aminoglycoside-lipid conjugates” (University of Manitoba, priority 2010, dated 2015).

For `NCC1OC(OC2C(N)CC(N)C(OCc3ccc(Cl)cc3)C2OC2OC(COCc3ccc(Cl)cc3)C(OC3OC(CN)C(OCc4ccc(Cl)cc4)C(OCc4ccc(Cl)cc4)C3N)C2OCc2ccc(Cl)cc2)C(N)C(OCc2ccc(Cl)cc2)C1OCc1ccc(Cl)cc1.O=C(O)C(F)(F)F.O=C(O)C(F)(F)F.O=C(O)C(F)(F)F.O=C(O)C(F)(F)F.O=C(O)C(F)(F)F.O=C(O)C(F)(F)F` (centres unmarked) [Compound 12], the “Minimal Inhibitory Concentration (MIC)” value with S. aureus ATCC 29213 turned out to be 64 µg/mL; in assay [1], 64 µg/mL; in [2], 32 µg/mL; in assay [3] it was 64 µg/mL; in [4], 128 µg/mL; in the assay on E. coli ATCC 25922, 128 µg/mL. Besides, the “Minimal Inhibitory Concentration (MIC)” value in [5] is greater than 128 µg/mL; in [6], 64 µg/mL; in [7], greater than 128 µg/mL; in assay [8], greater than 128 µg/mL; in assay [9], greater than 128 µg/mL; in assay [10] it was greater than 128 µg/mL. Besides, in the assay on S. pneumoniae ATCC 13883, the “Minimal Inhibitory Concentration (MIC)” value is 128 µg/mL.

As to `CC(C)(C)c1ccc(COCC2OC(OC3C(OCc4ccc(C(C)(C)C)cc4)C(N)CC(N)C3OC3OC(CN)C(OCc4ccc(C(C)(C)C)cc4)C(OCc4ccc(C(C)(C)C)cc4)C3N)C(OCc3ccc(C(C)(C)C)cc3)C2OC2OC(CN)C(OCc3ccc(C(C)(C)C)cc3)C(OCc3ccc(C(C)(C)C)cc3)C2N)cc1.O=C(O)C(F)(F)F.O=C(O)C(F)(F)F.O=C(O)C(F)(F)F.O=C(O)C(F)(F)F.O=C(O)C(F)(F)F.O=C(O)C(F)(F)F` (centres unmarked) [Compound 13], the “Minimal Inhibitory Concentration (MIC)” value in the assay with S. aureus ATCC 29213 was 128 µg/mL; in assay [1] it was 128 µg/mL; in assay [2], 64 µg/mL; in assay [3] it was 64 µg/mL; in [4] it was 256 µg/mL; in the assay on E. coli ATCC 25922 it was 128 µg/mL. Also, the “Minimal Inhibitory Concentration (MIC)” value is 128 µg/mL in assay [5]; 128 µg/mL in assay [6]; 256 µg/mL in [7]; 128 µg/mL in assay [8]; greater than 128 µg/mL in assay [9]; greater than 128 µg/mL in assay [10]. Also, the “Minimal Inhibitory Concentration (MIC)” value in the assay with S. pneumoniae ATCC 13883 is greater than 128 µg/mL.

As for `NCC1OC(OC2C(N)CC(N)C(OC3OC(COCc4ccccc4)C(OCc4ccccc4)C(N)C3OCc3ccccc3)C2OCc2ccccc2)C(OCc2ccccc2)C(OCc2ccccc2)C1OCc1ccccc1.O=C(O)C(F)(F)F.O=C(O)C(F)(F)F.O=C(O)C(F)(F)F.O=C(O)C(F)(F)F` (centres unmarked) [Compound 15], the “Minimal Inhibitory Concentration (MIC)” value came out at 8 µg/mL in the assay with S. aureus ATCC 29213; 8 µg/mL in assay [1]; 4 µg/mL in [2]; 8 µg/mL in [3]; 32 µg/mL in [4]; 32 µg/mL in the assay with E. coli ATCC 25922. Also, the “Minimal Inhibitory Concentration (MIC)” value is 32 µg/mL in assay [5]; 16 µg/mL in assay [6]; greater than 64 µg/mL in assay [7]; greater than 64 µg/mL in assay [8]; greater than 64 µg/mL in assay [9]; greater than 64 µg/mL in assay [10]. In addition, the “Minimal Inhibitory Concentration (MIC)” value in the assay with S. pneumoniae ATCC 13883 is greater than 64 µg/mL.

Take `NCC1OC(OC2C(N)CC(N)C(OC3OC(COCc4ccc(Cl)cc4)C(OCc4ccc(Cl)cc4)C(N)C3OCc3ccc(Cl)cc3)C2OCc2ccc(Cl)cc2)C(OCc2ccc(Cl)cc2)C(OCc2ccc(Cl)cc2)C1OCc1ccc(Cl)cc1.O=C(O)C(F)(F)F.O=C(O)C(F)(F)F.O=C(O)C(F)(F)F.O=C(O)C(F)(F)F` (centres unmarked) [Compound 16]: the “Minimal Inhibitory Concentration (MIC)” value was determined as 32 µg/mL with S. aureus ATCC 29213; 32 µg/mL in [1]; 32 µg/mL in assay [2]; 16 µg/mL in assay [3]; 64 µg/mL in assay [4]; 128 µg/mL with E. coli ATCC 25922. The “Minimal Inhibitory Concentration (MIC)” value in assay [5] is 128 µg/mL; in assay [6], 64 µg/mL; in [7], greater than 128 µg/mL; in [8], greater than 128 µg/mL; in [9], greater than 128 µg/mL; in assay [10] it was greater than 128 µg/mL. The “Minimal Inhibitory Concentration (MIC)” value in the assay with S. pneumoniae ATCC 13883 is greater than 128 µg/mL.

In the case of `NCCC(OCc1ccccc1)C(=O)NC1CC(N)C(OC2OC(CN)C(OCc3ccccc3)C(OCc3ccccc3)C2OCc2ccccc2)C(OCc2ccccc2)C1OC1OC(COCc2ccccc2)C(OCc2ccccc2)C(N)C1OCc1ccccc1.O=C(O)C(F)(F)F.O=C(O)C(F)(F)F.O=C(O)C(F)(F)F.O=C(O)C(F)(F)F` (centres unmarked) [Compound 18], the “Minimal Inhibitory Concentration (MIC)” value in the assay on S. aureus ATCC 29213 stood at 4 µg/mL; in assay [1], 4 µg/mL; in assay [2], 1 µg/mL; in [3], 1 µg/mL; in [4], 32 µg/mL; in the assay on E. coli ATCC 25922 it was 16 µg/mL. For the same molecule, the “Minimal Inhibitory Concentration (MIC)” value is 16 µg/mL in assay [5]; 16 µg/mL in assay [6]; 128 µg/mL in [7]; 64 µg/mL in assay [8]; 32 µg/mL in assay [9]; 32 µg/mL in [10]. The “Minimal Inhibitory Concentration (MIC)” value in the assay with S. pneumoniae ATCC 13883 is 16 µg/mL.

In the case of `NCCC(OCc1ccc(Cl)cc1)C(=O)NC1CC(N)C(OC2OC(CN)C(OCc3ccc(Cl)cc3)C(OCc3ccc(Cl)cc3)C2OCc2ccc(Cl)cc2)C(OCc2ccc(Cl)cc2)C1OC1OC(COCc2ccc(Cl)cc2)C(OCc2ccc(Cl)cc2)C(N)C1OCc1ccc(Cl)cc1.O=C(O)C(F)(F)F.O=C(O)C(F)(F)F.O=C(O)C(F)(F)F.O=C(O)C(F)(F)F` (centres unmarked) [Compound 19], the “Minimal Inhibitory Concentration (MIC)” value is 128 µg/mL in the assay on S. aureus ATCC 29213; 128 µg/mL in assay [1]; 128 µg/mL in assay [2]; 64 µg/mL in [3]; 128 µg/mL in assay [4]; greater than 256 µg/mL in the assay on E. coli ATCC 25922. Besides, the “Minimal Inhibitory Concentration (MIC)” value in [5] was greater than 256 µg/mL; in assay [6], 256 µg/mL; in assay [7], greater than 256 µg/mL; in [8] it was greater than 256 µg/mL; in assay [9], greater than 256 µg/mL; in assay [10], greater than 256 µg/mL. Besides, in the assay on S. pneumoniae ATCC 13883, the “Minimal Inhibitory Concentration (MIC)” value was greater than 256 µg/mL.

Regarding `NC[C@H]1O[C@H](O[C@H]2[C@H](O)[C@@H](O[C@H]3O[C@H](CO)[C@@H](O)[C@H](N)[C@H]3O)[C@H](N)C[C@@H]2N)[C@H](O)[C@@H](O)[C@@H]1O` [Kanamycin A, reference compound], the “Minimal Inhibitory Concentration (MIC)” value with S. aureus ATCC 29213 is 4 µg/mL; in [1] it was greater than 512 µg/mL; in [2] it was 2 µg/mL; in assay [3], 128 µg/mL; in assay [4], 8 µg/mL; with E. coli ATCC 25922, 8 µg/mL. For the same molecule, the “Minimal Inhibitory Concentration (MIC)” value in assay [5] is 16 µg/mL; in assay [6] it was 32 µg/mL; in [7] it was greater than 512 µg/mL; in [8], greater than 512 µg/mL; in [9] it was greater than 512 µg/mL; in [10] it was 32 µg/mL. Moreover, the “Minimal Inhibitory Concentration (MIC)” value with S. pneumoniae ATCC 13883 was determined as 1 µg/mL.

As for Gentamicin [reference compound], the “Minimal Inhibitory Concentration (MIC)” value in the assay with S. aureus ATCC 29213 is 1 µg/mL; in assay [1], 2 µg/mL; in [2] it was 0.25 µg/mL; in assay [3], 32 µg/mL; in [4], 4 µg/mL; in the assay on E. coli ATCC 25922, 1 µg/mL. For the same molecule, the “Minimal Inhibitory Concentration (MIC)” value in [5] was 128 µg/mL; in assay [6], 8 µg/mL; in [7], 8 µg/mL; in [8] it was 128 µg/mL; in [9] it was greater than 512 µg/mL; in [10], 128 µg/mL. Also, in the assay with S. pneumoniae ATCC 13883, the “Minimal Inhibitory Concentration (MIC)” value was 0.25 µg/mL.
